From patent US20080280886A1, “SUBSTITUTED UREAS” (AUSPEX PHARMACEUTICALS, INC., priority 2007, published 2008)

What was measured:
[1] = In vitro liver microsomal stability assay; format: in vitro ADME; conditions: 1 mg per mL liver microsome protein, NADPH-generating system, 5 microgram per mL compound, 37° C., 0-60 min, LC/MS/MS
Description: Liver microsomal stability assays are conducted at 1 mg per mL liver microsome protein with an NADPH-generating system in 2% NaHCO3 (2.2 mM NADPH, 25.6 mM glucose 6-phosphate, 6 units per mL glucose 6-phosphate dehydrogenase and 3.3 mM MgCl2). Test compounds are prepared as solutions in 20% acetonitrile-water and added to the assay mixture (final assay concentration 5 microgram per mL) and incubated at 37° C. Final concentration of acetonitrile in the assay should be <1%. Aliquots (50 μL) are taken out at times 0, 15, 30, 45, and 60 min, and diluted with ice cold acetonitrile (200 μL) to stop the reactions. Samples are centrifuged at 12,000 RPM for 10 min to precipitate proteins. Supernatants are transferred to microcentrifuge tubes and stored for LC/MS/MS analysis of the degradation half-life of the test compounds.

[2] = test system: dopamine release; conditions: Li et al. 2005; cited from earlier work
[3] = test system: hyperactivity induced by NMDA receptor antagonist MK-801; conditions: Vanover et al. 2006; cited from earlier work
[4] = test system: DOI-induced head twitches; conditions: rodent; Vanover et al. 2006; cited from earlier work

[2H]C([2H])(NC(=O)N(C1CCN(C([2H])([2H])[2H])CC1)C([2H])([2H])c1ccc(F)cc1)c1ccc(OC([2H])([2H])C(C)C)cc1 [Example 3, d9-1-(4-Fluorobenzyl)-3-(4-isobutoxybenzyl)-1-(1-methylpiperidin-4-yl)urea hemi-tartrate]
increase in degradation half-life as compared to the non-isotopically enriched drug (Pimavanserin) [1]: 17%

CC(C)COc1ccc(CNC(=O)N(Cc2ccc(F)cc2)C2CCN(C)CC2)cc1 [Pimavanserin, 1-(4-fluoro-benzyl)-3-(4-isobutoxy-benzyl)-1-(1-methyl-piperidin-4-yl)-urea]
dopamine release when combined with haloperidol [2]: potentiate dopamine release
hyperactivity induced by MK-801 (dozocilpine) [3]: attenuate hyperactivity
DOI-induced head twitches [4]: reduce
